Test results reported in US7482427B2, “Positive modulator of bone morphogenic protein-2” (BioSurface Engineering Technologies, Inc., priority 2002, dated 2009).

Tests used:
[1] = tested on: BMPR and ActivinR isoforms; test: Solid phase receptor binding assay, panel of receptor/Fc chimeras; details: insulin adsorbed to plates; Endostatin-Fc as unrelated chimeric protein
Protocol: Receptor binding assays. Binding to BMP receptors in a solid phase binding assay. B2A2 was absorded onto ELISA plates to saturation, soluble BMP receptor-immunoglobin Fc fusion proteins were added, and bound receptor was detected by HRP-conjugated anti-Fc antibody and colorimetric assay, values shown are background substracted. Specific binding of B2A2 to different receptor isoforms of the BMPR and Activin Receptor family were tested, employing the receptor-Fc chimeras shown. […] Bound receptor was displaced by the addition of rhBMP-2 at the levels indicated.
The compound of Example 2 was tested for specific binding to Bone Morphogenic Protein-2 receptors. Referring now to FIG. 12, results of solid phase receptor binding assays utilizing purified receptor/Fc chimeric molecules are illustrated. The chimeras are recombinant constructs of the soluble ectodomain of various receptor molecules (BMPR and ActivinR isoforms) fused to the carboxyl-terminal of the human IgG1 Fc region via a polypeptide liner. ELISA plates were coated with B2A2 or control compounds, soluble chimeric receptor/Fc antibody and quantified with a colorimeteric ELISA.

[2] = tested on: C2C12 cells; test: Alkaline phosphatase (ALP) activity assay in C2C12 cells; assay type: cell-based, Mouse; details: for induction of ALP by growth factor in the presence of B2A2: B2A2 1000 ng/mL, FGF-2 50 ng/mL, VEGF 25 ng/mL, TGF-β1 50 pg/mL, 3 days
Protocol: Alkaline phosphatase (ALP) Activity Assay. C2C12 cells and C3H10T½ cells were cultured at 37° C. in a humidified atmosphere of 5% CO2 and 95% air, with DMEM/F12 medium supplemented with 10% serum, penicillin/streptomycin. […] At 4-5 days post induction, ALP activity was determined as described by Akiyama and colleagues (Akiyama et al. 1997, Exp Cell Res 235(2):362-9.) with modifications. Briefly, cells were washed once with phosphate-buffered saline (PBS) and lysed with 0.1% Triton×100 in 10 mM Tris HCl, pH 9.0. Protein concentration was determined using the BCA Protein Assay Kit (Pierce Biotechnology, Rockford, Ill.). Then ALP activity was measured by adding ALP buffer (1 M diethanolamine, 0.5 mM MgCl2, 1 mg/mL p-nitrophenylphosphate, pH 9.0), incubating in 37° C., and absorbance (405 nm) read at 15, 30 and 60 minutes using a microplate spectrophotometer (Molecular Devices, Sunnyvale, Calif.). The activity was expressed as O.D. per mg protein per hour.
B2A2 was tested to determine whether B2A2 enhanced the biological effects of CHO-produced rhBMP-2. […] Points represent means of quintuplicate determinations±SD.
B2A2 was tested in combination with other growth factors including FGF-2, VEGF, and tGF-β1 for induction of ALP in C2C12 cells. […] Mouse C2C12 cells were cultured as described for FIG. 1A, treated with a combination of various growth factors plus or minus B2A2, incubated for 3 days, and then assayed for ALP activity as described for FIG. 1A. […] Bars represent means of quintuplicate determinations±SD.
Mouse C2C12 cells were cultured as before and B2A2 (1000 ng/mL) was added to some wells. After a 45 minute incubation all wells were rinsed with fresh medium and the medium was replaced. […] After 5 days ALP activity was measured. […] Data is the means of triplicates±SD.
In FIG. 5A, a polystyrene surface of 96-well plates were first coated by silyl-heparin (open bars), followed by a 1 μg/mL solution of B2A2 (solid bars) in PBS for (1 hr at 37° C.) and rinsed in PBS and dried at room temperature. […] ALP activity was measured five days later. Data is the means of triplicates±SD.
In FIG. 5B, stainless steel wafers were first coated with silyl-heparin (open bars) followed by 100 μg/mL B2A2 in PBS as a second coating (solid bars) and rinsed in PBS and dried at room temperature. Wafers were coated separately in wells of a 24-well plate and transferred to a fresh untreated plate prior to cell seeding.
ALP activity was measured five days later. Data is the means of triplicates±SD.

[3] = tested on: C3H10T½, MC3T3 cells or hFOB; test: Cell migration across simulated wound margin, positive control (cell line not specified); assay type: cell-based; details: positive control reference, FGF-2 50 ng/mL, 6 hours (data not shown)
Protocol: Cell migration. For studies involving migration across a wound margin, the cells were grown in vitro and used when approximately 90% confluent. A simulated wound was made by scraping cells away from the cultureware surface. The cultures were rinsed to remove unbound cells, and then incubated in DMEM:F12 medium containing 2% newborn calf serum with or without peptide. FGF-2 (50 ng/mL) was used as a positive control reference material. The cells were allowed to migrate for 6 hours after which the cells were fixed in buffered formalin. Migration was monitored via phase contrast microscopy. Migrating cells were those that had migrated across the site of the simulated wound margin.
B2A2-K-NS was tested for its ability to induce cells of preosteoblast origin to migrate to a stimulated wound margin. Murine C3H10T½, MC3T3 cells or hFOB were grown to near confluency in vitro. A stimulated wound was made by scraping the cells away from the substrate. The cells were allowed to migrate for 6 hours after which migration was monitored via microscopy. Statistical significance was determined using ANOVA followed by post hoc testing using multiple comparison versus control group (Dunnett's Method). […] Table 3 summarizes the increase in migrating cells at the simulated wound margin induced by about 0.2 to 2.0 μg/mL B2A2-K-NS.

Row | Substance | induction of ALP by growth factor in the presence of B2A2 [2] | other results
1 | Insulin |  | binding of negative controls [1]: did not bind
2 | FGF-2: growth factor, positive control reference material for migration (50 ng/mL) | failed to induce ALP | migrating cells compared to controls [3]: significant increase in migrating cells
3 | VEGF | failed to induce ALP | 
4 | TGF-B: growth factor purchased from Sigma Aldrich, tested in combination with B2A2 | failed to induce ALP | 
5 | benzyl-tetra(dimethylsilylmethyl)oxycarbamoyl-heparin [silyl-heparin, reference compound] |  | ALP activity on coated polystyrene surface ([2]; silyl-heparin coating alone, BMP-2 50 ng/mL in solution, 5 days): potentiates BMP-2 activity
